Assay [1] has as its system HEK 293T cells. Kind of assay: Ratiometric Fura-2 calcium imaging, HEK 293T cells. The conditions noted are these: for Effect on ET-1 (30 nM) calcium transient: MDL-12,330A 50 µM, five minutes before ET-1, HEK 293T cells. It counts as cell-based, human.
Assay [2] deals with HEK 293 cells. The assay can be described thus: Ratiometric Fura-2 calcium imaging, HEK 293 cells. It counts as cell-based, human.
Assay [3] deals with ND7/104 cells. Kind of assay: Ratiometric Fura-2 calcium imaging, ND7/104 cells. The format is cell-based, rat/mouse hybrid. The settings on record: for Effect on ET-1 (30 nM) calcium transient: MDL-12,330A 50 µM, five minutes before ET-1, ND7/104 cells.
Assay [4] relates to ET receptors (ETA/ETB) on intact ND7/104 cells. The assay can be described thus: Competition binding against 30 pM [125I]-ET-1, intact ND7/104 cells. The arrangement: species or system rat/mouse hybrid. The settings on record: 100 nM BQ-123, ND7/104 cells.
For assay [5], the system named is ET receptors (ETA/ETB) on intact HEK 293T cells.
Assay [6] deals with T1, ET receptors (ETA/ETB) on intact HEK 293T cells (Homo sapiens, UniProt P25101).
T1 sequence (P25101 21-427): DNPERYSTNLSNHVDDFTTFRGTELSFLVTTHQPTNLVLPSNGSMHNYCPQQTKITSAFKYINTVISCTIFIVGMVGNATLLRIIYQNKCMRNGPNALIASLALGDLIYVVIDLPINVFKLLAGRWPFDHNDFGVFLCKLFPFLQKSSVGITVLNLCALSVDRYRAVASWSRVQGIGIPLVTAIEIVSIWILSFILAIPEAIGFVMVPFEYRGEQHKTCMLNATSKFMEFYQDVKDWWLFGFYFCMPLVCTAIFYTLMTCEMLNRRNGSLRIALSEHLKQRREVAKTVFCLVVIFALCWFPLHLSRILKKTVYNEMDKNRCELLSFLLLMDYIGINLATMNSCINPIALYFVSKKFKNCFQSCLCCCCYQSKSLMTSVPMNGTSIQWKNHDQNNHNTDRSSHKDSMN
The conditions noted are these: read-out: High affinity KI BQ-123; HEK 293T cells, high affinity site (assumed ETA).

Assay [7] relates to ET receptors (ETA/ETB) on intact HEK 293 cells. The conditions noted are these: for Ki: HEK 293 cells.
Assay [8] concerns ND7/104 cells. Kind of assay: Intracellular cAMP enzyme immunoassay, ND7/104 cells. It counts as cell-based, rat/mouse hybrid. The settings on record: ET-1 0.3 nM to 300 nM, 10 min 37 °C.
Assay [9] concerns HEK 293T cells. The assay can be described thus: Intracellular cAMP enzyme immunoassay, HEK 293T cells. The format is cell-based, human. The conditions noted are these: ET-1 0.3 nM to 300 nM, 10 min 37 °C.
Assay [10] concerns ET receptors on intact ND7/104 cells. Kind of assay: [125I]-ET-1 saturation binding to intact ND7/104 cells. Further details: species or system rat/mouse hybrid. The settings on record: read-out: KD (I-ET-1), 4 °C.
Assay [11] deals with cloned tagged-ETA receptors. The conditions noted are these: HEK 293 membranes ref [33]; cited from earlier work.
Assay [12] has as its target cloned tagged-ETB receptors. The settings on record: HEK 293 membranes ref [33]; cited from earlier work.
Assay [13] addresses ET receptors in pituitary tissue sections. The settings on record: pituitary tissue sections ref [32]; cited from earlier work.

Values joined by “and” are separate entries in the source; they are usually repeats but may differ in a detail not shown here. Equal entries are not always repeated. “Also recorded” adds a separate entry of the source. Where two headings read alike, the source gives them in different places. Non-standard residues stand in square brackets, D forms with d. Residues, ends and D or L forms follow the SMILES beside them. No end group written: not given here.

On to `Nc1ncnc2c1ncn2[C@@H]1O[C@H](COP(=O)(O)OP(=O)(O)OP(=O)(O)O)[C@@H](O)[C@H]1O` [ATP], for which the “Calcium response to ATP” value in assay [1] (ATP 40 µM, HEK 293T cells) is “induced a strong and comparable calcium response”; in assay [2] (ATP 40 µM) it was “induced a strong and comparable calcium response”; in assay [3] (ATP 40 µM, ND7/104 cells) it was “induced a strong and comparable calcium response”.
Turning to `CC(C)C[C@@H]1NC(=O)[C@@H](C(C)C)NC(=O)[C@@H]2CCCN2C(=O)[C@@H](CC(=O)O)NC(=O)[C@@H](Cc2c[nH]c3ccccc23)NC1=O` [BQ-123] (cyclo(L[dW][dD]P[dV]); ring closure inferred), the “ETA binding defined by BQ-123, share of specific [125I]-ET-1 binding” value was 75.2 ± 22.2% and 75 ± 22% in assay [4]; 75 ± 9% in [5] (100 nM BQ-123, HEK 293T cells); 85.3 ± 19% and 85 ± 19% in assay [7] (100 nM BQ-123, HEK 293 cells). Also, the “Effect on ET-1 (30 nM) stimulated calcium increase” value in assay [1] (BQ-123 50 nM, HEK 293T cells) is listed as “blocked; also recorded: completely prevented”; in assay [3] (BQ-123 50 nM, ND7/104 cells), “blocked; also recorded: completely prevented”. In assay [5] (HEK 293T cells, low affinity site), the “Low affinity Ki BQ-123” value is reported as “too high to allow its estimation”. Moreover, the Ki in [5] (read-out: KI (BQ-123), HEK 293T cells, 30 pM [125I]-ET-1) is 0.21 ± 0.01 nM; in assay [6], 5.47 ± 1.52 nM; in assay [7] (read-out: KI (BQ-123), 30 pM [125I]-ET-1), 0.39 ± 0.14 nM; in assay [7] (read-out: Low affinity KI BQ-123, low affinity site) it was 195 ± 136 nM.
Consider `CCCC[C@@H](NC(=O)[C@@H](Cc1cn(C(=O)OC)c2ccccc12)NC(=O)[C@H](CC(C)(C)C)NC(=O)N1[C@H](C)CCC[C@@H]1C)C(=O)O` [BQ-788], for which the “Effect on ET-1 (30 nM) stimulated calcium increase” value in assay [1] (BQ-788 100 nM (Figure 6B: 100 and 200 nM), HEK 293T cells) is reported as “without effect; also recorded: not affected”; in assay [3] (BQ-788 100 nM (Figure 6B: 100 and 200 nM), ND7/104 cells), “without effect; also recorded: not affected”.
Take `Cc1cc(C)cc(C(=O)N(C)[C@H](Cc2ccc(-c3ccccc3)cc2)C(=O)N[C@@H](Cc2c[nH]c3ccccc23)C(=O)O)c1` [IRL-2500]: the “Effect on ET-1 (30 nM) stimulated calcium increase” value in assay [1] (IRL-2500 50 nM, HEK 293T cells) was “without effect; also recorded: not affected”; in [3] (IRL-2500 50 nM, ND7/104 cells), “without effect; also recorded: not affected”.
In the case of `Cl.c1ccc(C2CCCC2NC2=NCCCCCCCCCCC2)cc1` (stereo not drawn) [MDL-12,330A], the “Basal [Ca2+]in on application of antagonist/inhibitor alone” value was “did not produce a significant effect; also recorded: did not elicit a significant rise of [Ca^2+]in” in [1] (HEK 293T cells, MDL 12,330A 50 µM, data not shown) and “did not produce a significant effect; also recorded: did not elicit a significant rise of [Ca^2+]in” in [3] (ND7/104 cells, MDL 12,330A 50 µM, data not shown). Moreover, the “Effect on ET-1 (30 nM) calcium transient” value in assay [1] is “same outcome”; in assay [1] (listed as MDL 12,330A) it was “did not affect negatively”; in assay [3], “same outcome”; in assay [3] (listed as MDL 12,330A), “did not affect negatively”. Also, the “Effect on calcium response to ATP” value in assay [3] (MDL 12,330A 50 µM preincubation, ND7/104 cells) is “markedly diminished response to ATP”.
Consider `COc1ccc2c(c1)CC[C@@H]1[C@@H]2CC[C@]2(C)[C@@H](NCCCCCCN3C(=O)C=CC3=O)CC[C@@H]12` [U73122], for which the “Effect on ET-1 (30 nM) induced calcium transient” value is on record as “complete inhibition” in [1] (U73122 10 µM, 30 min pretreatment, normalized to ionomycin, HEK 293T cells) and “complete inhibition” in assay [3] (U73122 10 µM, 30 min pretreatment, normalized to ionomycin, ND7/104 cells). The “Effect on calcium response to ATP” value in assay [1] (U73122 10 µM, HEK 293T cells) is “abrogated”; in [3] (U73122 10 µM, ND7/104 cells) it was “abrogated”. Moreover, the “Effect on response elicited by bradykinin” value in assay [3] (U73122, ND7/104 cells, data not shown) was “does not inhibit”.
As for “Endothelin-1 (CSCSSLMDKECVYFCHLDIIW; ends and bridges not checked; cysteine pairing not given here; UniProt P05305 53-73, looked up) [ET-1]”, the “Intracellular cAMP accumulation” value in [8] and in assay [9] was “did not record a rise of intracellular cAMP; also recorded: None of the ET-1 concentrations tested produced a significant effect” each time. Further, the “Share of cells showing [Ca2+]in mobilization” value is listed as ~ 35% in [1] (ET-1 30 nM and 100 nM, HEK 293T cells); ~ 35% in assay [3] (ET-1 30 nM and 100 nM, ND7/104 cells). In addition, the “[Ca2+]in response to ET-1 (normalized to ATP 40 µM)” value in assay [1] (ET-1 30 or 100 nM, HEK 293T cells) is “caused an increase in [Ca]in”; in assay [2] (ET-1 30 or 100 nM), “neither of these concentrations of ET-1 produced a detectable increase of [Ca^2+]in; also recorded: does not promote intracellular calcium mobilization; also recorded: this effect was not observed”; in [3] (ET-1 30 or 100 nM, ND7/104 cells) it was “caused an increase in [Ca]in”. The “[Ca2+]in response to ET-1 in the absence of extracellular calcium” value in [1] (calcium-free Ringer, HEK 293T cells) is reported as “not diminished; also recorded: did not affect the response”; in [3] (calcium-free Ringer, ND7/104 cells), “not diminished; also recorded: did not affect the response”.
On to “[^125I]-ET-1: radio-iodinated endothelin-1 used as radioligand”, for which the Kd is 0.07 ± 0.01 nM in assay [10], ~0.03 nM in assay [11], ~0.01 nM in [12] and 0.071 nM in [13].

Broadly, the Ki is a measure of affinity in units of concentration, obtained from inhibition or displacement. What is called Kd is a measure of binding affinity in units of concentration.

(Values after paper PMC3130094 (Pharmacological research : the official journal of the …, 2011).)
